For one assay, the system named is rat mast cells. As to the kind of experiment: Rat Mast Cell (RMC) histamine release from passively sensitized rat mast cells. In kind it is cell-based. Particulars: passively sensitized in vitro with anti-ovalbumin serum, antigen-induced histamine release, 0.1% DMSO, read-out: RMC I50. The source says:
The compounds of the present invention are useful as intermediates for making benzo-bis-oxazoles. Further, the compounds of the present invention are useful as antiallergic agents as evidenced by their activity as blockers of histamine release from passively sensitized rat mast cells (RMC) and in the rat passive cutaneous test (PCA). A brief description of the test methods follow.
Rat Mast Cell (RMC) Studies--(Based on E. Kusner, B. Dabnick, D. F. Herzig, J. Pharm. Exp., Ther., 1973, 184, 41.) Rat mast cells were passively sensitized in vitro with anti-ovalbumin serum. Following a 15 minute incubation, the spontaneous histamine release (SR) in the absence of antigent and AIR (in the presence of antigen) were measured fluorometrically with a Technicon Auto Analyzer®.

For assay [1], the system named is rat passive cutaneous anaphylaxis (blued wheal area). The assay is described as follows: Passive cutaneous anaphylaxis in the rat (PCA). Particulars: 125 mg/kg p.o.; antigen challenge ten minutes after oral administration. The assay is classed as in vivo, rat (male, Sprague Dawley). The source says:
Passive Cutaneous Anaphalixis in the Rat (Based on I. Mota, Life Science, 1963, F 465; and Z. Ovary and O. G. Bier, Proc. Soc. Exp. Biol. and Med., 1952, 81, 584)--Male, Sprague Dawley rats were sensitized at dorsal sites by intradermal injection of syngeneic serum containing IgE anti-ovalbumin.Forty-eight hours later, groups of four rats were given either vehicle (1% methylcellulose) or graded does of compound. Either ten minutes after oral drug administration or five minutes after i.p. drug dosing, rats were challenged intravenously with antigen (ovalbumin) in 1% Evans blue dye. Thirty minutes after antigen challenge, the rats were sacrificed by cervical dislocations, the dorsal skins were reflected and blued wheal areas measured. Mean values±S.D. for wheal areas in control and drug-treated groups were detemined and compared statistically using Student's t-test.

Regarding `O=c1[nH]c2cc3[nH]c(=O)c(=O)oc3cc2oc1=O` [Example 1F, Benzo[1,2-b;5,4-b]-bis-[1,4]oxazine-2,3,7,8-tetrone], the IC50 with rat mast cells turned out to be 3000 nM. Moreover, in assay [1], the “PCA % Inhibition” value worked out at 26%.

`O=c1[nH]c2cc3oc(=O)c(=O)[nH]c3cc2oc1=O` [Example 2E, Benzo(1,2-b;4,5-b)-bis-[1,4]oxazine-2,3,7,8-tetrone]: the IC50 with rat mast cells is 1200 nM. Further, the “PCA % Inhibition” value in assay [1] came to 42%.

The values above are taken from patent US4476125A, “Benzobisoxazinetetrones and anti-allergic use thereof” (USV Pharmaceutical Corporation, priority 1983, dated 1984).
